System: EGFR, ERK1, ERK2, and AKT
Assay: Phosphorylation of signaling proteins in HT29 cells
Assay type: cell-based, human
Description: These effects were detected with as little as […] of EGCG, and within 5 minutes. Phosphorylation of EGFR, ERK1, ERK2, and AKT were suppressed in cells treated with methyl-β-cyclodextrin, which depletes plasma membrane cholesterol. […] In addition, the inhibitory effect of EGCG on phosphorylation of EGFR was not blocked by the addition of cholesterol on the growth medium. These findings provide evidence that EGCG can alter membrane domain organization in colon cancer cells ant that this is not due to cholesterol depletion. It was noted that pre-treatment of the cells with EGCG or Poly E inhibited the binding of Alexa 488-labeled EGF to the cell surface receptor EGFR.

methyl-β-cyclodextrin [reference compound]
phosphorylation of EGFR, ERK1, ERK2, and AKT: suppressed
